In patent US20090124572A1, “Iron-containing nutritional supplement” (priority 2007, published 2009):

Assays:
[1] = system: Caco-2 cells; assay: In-solution treatment of Caco-2 cells, ferritin formation as index of iron uptake/bioavailability (Experiments 1 and 2); settings: Experiment 1, 6-well plates, iron 20 μmol/L, AA 400 μmol/L, 20 hours
[2] = dissolved in water; cited from earlier work

Question: With `[Cl][Fe]([Cl])[Cl]` [FeCl3, ferric chloride] as the compound, how does the “ferritin formation in Caco-2 cells in the presence of ascorbic acid” value [1] read?
Answer: significantly lower

Question: With ferrous sulfate as the compound, how does the “pH of aqueous solution” value [2] read?
Answer: about 2
